Values joined by “and” are separate entries in the source; they are usually repeats but may differ in a detail not shown here. Equal entries are not always repeated. Where two headings read alike, the source gives them in different places.
Columns and labels:
[1] = test system: Sitophilus zeamais; test: whole plant or invertebrate; details: for LC50 / EC90: Sitophilus zeamais; for EC90: read-out: Fumigant Toxicity LC90 (95% FL)
Experimental: (§1) The insects used in this study were Sitophilus zeamais Motschulsky (Coleoptera: Curculionidae), identified by the Instituto Colombiano Agropecuario (ICA) under report number R3823M0000425. […] The adult insects used in all the experiments were 6 to 10 days post-emergence.
The treated disks were affixed to the inner surface of the screw cap of 22 mL glass vials. […] All treatments were performed in two independent experiments, each with five replicates.
(§2) Mixtures predicted by the RSM were prepared based on mole fractions. […] Four replicates were performed for each treatment and control across two independent experimental runs.
Dose reduction indices (DRIs) were also calculated to estimate how much the dose of each compound in a synergistic combination could be reduced to achieve a 50% effect (Equation (4)). DRIs were interpreted as favorable when >1, neutral at 1, and unfavorable when <1. Values above the log DRI = 0 line indicate favorable dose reductions.(4) (IRD)i=CL50i(fax)i/(1−(fax)i)^1/mi/(D)i

[2] = test system: glutathione S-transferase (GST) activity in S. zeamais; test: GST activity assay (modified Habig) with S. zeamais protein extract; assay type: biochemical, Sitophilus zeamais; details: 120 mg/L
Experimental: Enzymatic assays were performed in the assay buffer, consisting of 0.1 M potassium phosphate buffer (pH 7.2). The compounds and mixtures evaluated in the in vitro assays were prepared in the same buffer supplemented with 0.5% (v/v) Triton X-100 (Sigma-Aldrich®, Saint Louis, MO, USA).
A modified version of the method described by Oviedo et al. was used. Adults of S. zeamais (8 g; ~3125 insects) were frozen in liquid nitrogen, homogenized in a 1:10 ratio with assay buffer, and centrifuged at 13,000× g for 60 min at 4 °C. The supernatant was filtered, and 20 mM benzamidine was added. The extracts were stored in 5 mL aliquots at −20 °C. Preliminary assays were performed to quantify the specific activity of AChE (0.02–1.00 U/mL), GST (0.1–0.8 U/mL), and CAT (0.1–25 U/mL), and to optimize assay conditions (enzyme dilution: 1/8 to 1% v/v; substrate concentrations: 2 × km or within assay linearity). Each experiment was performed independently three times, with three technical replicates per experiment.
A modified version of Habig’s method was used. The protein extract (50 µL; 0.59 U/mL) was incubated with 50 µL of the compound or mixture (120 mg/L), followed by 50 µL each of CDNB and reduced glutathione (GSH). Kinetic absorbance was measured at 340 nm for 8 min. Blanks (without substrate) and quercetin (positive control) were included. Inhibition (%) was calculated using Equation (5), and treatment differences were evaluated via parametric ANOVA (α = 0.05) in GraphPad Prism 8.0.2 [42, 43]. Each experiment was performed independently three times, with three technical replicates per experiment.(5) % Inhibition=1−Am−AB/AC ×100 where Am is the absorbance of the sample, AB is the absorbance of the blank, and AC is the absorbance of the negative control.

[3] = test system: AChE of S. zeamais; test: AChE activity assay (modified Ellman) with S. zeamais protein extract; assay type: biochemical, Sitophilus zeamais; design: key to AChE Effect Inhibitor Type: C: competitive inhibitor; NC: non-competitive inhibitor; details: for AChE Effect Inhibitor Type: Lineweaver–Burk; for AChE Effect IC50 ± SD / Ki: S. zeamais protein extract; for Ki: read-out: AChE Effect ki ± SD (inhibitory constant)
Experimental: The compounds and mixtures evaluated in the in vitro assays were prepared in the same buffer supplemented with 0.5% (v/v) Triton X-100 (Sigma-Aldrich®, Saint Louis, MO, USA).
The supernatant was filtered, and 20 mM benzamidine was added. The extracts were stored in 5 mL aliquots at −20 °C. Preliminary assays were performed to quantify the specific activity of AChE (0.02–1.00 U/mL), GST (0.1–0.8 U/mL), and CAT (0.1–25 U/mL), and to optimize assay conditions (enzyme dilution: 1/8 to 1% v/v; substrate concentrations: 2 × km or within assay linearity).
Then, 50 µL of DTNB and 50 µL of ATChI were added. […] Inhibition percentages were calculated using Equation (5).

[4] = test system: Sitophilus zeamais; assay type: in vivo; details: for Contact Toxicity LD50i (LC-95%): mixtures and their components (Table 3)
Experimental: as §1
Groups of 10 insects, previously placed in Petri dishes, were immobilized by exposure to low temperatures (0 °C). An initial dose of 50.0 µg per adult was applied topically to the dorsal thorax of each insect using aliquots of 0.20 µL from 0.25 mg/µL solutions in n-hexane. […] All treatments were performed in two independent experiments, each with four replicates. Insect mortality was assessed after 24 h, and mortality percentages were calculated using Abbott’s correction formula (Equation (1)).
as §2
Dose reduction indices (DRIs) were also calculated to estimate how much the dose of each compound in a synergistic combination could be reduced to achieve a 50% effect (Equation (4)). DRIs were interpreted as favorable when >1, neutral at 1, and unfavorable when <1.

[5] = 24 h, read-out: Fumigant Toxicity LC50i (LC-95%)
[6] = in Homo sapiens, 24 h, read-out: Fumigant Toxicity LC50 (95% FL)
[7] = read-out: LC50 values, fumigant activity (Figure 3)

Compound | LC50 [1, 5] [µg/mL] | LC50 [1, 6] | EC90 ([1]; in Homo sapiens, 24 h) | GST Inhibition λ340 (%) [2] | Contact Toxicity LD50 (95% FL) ([4]; topical, 24 h after exposure) | Contact Toxicity LD90 (95% FL) ([4]; topical, 24 h after exposure) | other results
C=C(C)C1CC=C(C)CC1 (racemic) [Compound C16, DL-Limonene (1:1)] | 88.7 | 88.7 µg/mL and 651 µM | 136 µg/mL and 999 µM | 7.4% | – | – | AChE inhibition type (Lineweaver–Burk plots), in words [3]: non-competitive inhibition; AChE Effect Inhibitor Type [3]: NC; AChE Effect IC50 ± SD [3]: 26.69 ± 2.90 µg/mL; Ki [3]: 79.64 ± 0.55 µM
C=C(C)[C@H]1CC=C(C)C(=O)C1 [Compound C3, S-(+)-Carvone] | 2.87 | 2.87 µg/mL and 19.1 µM | 5.31 µg/mL and 35.4 µM | 23.0% | 12.68 (10.91–14.60) µg/Adult | 23.236 (20.46–27.42) µg/Adult | Contact Toxicity LD50i (LC-95%) [4]: 12.68 µg/Adult; LC50 [1, 7]: 2.87 µg/mL; AChE inhibition type (Lineweaver–Burk plots), in words [3]: competitive inhibition; AChE Effect Inhibitor Type [3]: C; AChE Effect IC50 ± SD [3]: 66.27 ± 4.35 µg/mL; Ki [3]: 56.76 ± 0.18 µM
CC1C(=O)CC2(C(C)C)CC12 (stereo not drawn) [Compound C6, α, β-Thujone (70:10)] | – | 4.34 µg/mL and 28.5 µM | 6.81 µg/mL and 44.7 µM | – | 32.04 (29.44–34.42) µg/Adult | 44.67 (41.56–49.34) µg/Adult | –
C=C(C)[C@@H]1CC[C@@H](C)C[C@H]1O [Compound C7, 1R,2S,5R-Isopulegol] | 4.73 | 4.73 µg/mL and 30.7 µM | 7.19 µg/mL and 46.6 µM | 10.6% | – | 26.65 (25.07–28.90) µg/Adult | AChE inhibition type (Lineweaver–Burk plots), in words [3]: competitive inhibition; AChE Effect Inhibitor Type [3]: C; AChE Effect IC50 ± SD [3]: 18.15 ± 0.64 µg/mL; Ki [3]: 282 ± 4.14 µM
CC1(C)C(=O)[C@]2(C)CC[C@H]1C2 [Compound C8, 1R-(−)-Fenchone] | – | 10.6 µg/mL and 69.6 µM | 17.1 µg/mL and 112 µM | – | 34.65 (32.19–37.08) µg/Adult | 48.33 (45.12–52.78) µg/Adult | –
CCCCCCCC(C)=O [Compound C9, 2-Nonanone] | – | 9.09 µg/mL and 63.9 µM | 13.7 µg/mL and 96.5 µM | – | 31.86 (30.27–33.17) µg/Adult | 39.69 (38.01–42.15) µg/Adult | –
C=CCc1ccc(OC)cc1 [Compound C11, Estragole] | 30.5 | 30.5 µg/mL and 206 µM | 57.5 µg/mL and 388 µM | ~ 17.5% and 17.6% | – | – | Contact Toxicity LD90 (95% FL) ([4]; in vivo): 79.66 (68.62–99.73) µg/Adult; AChE inhibition type (Lineweaver–Burk plots), in words [3]: competitive inhibition; AChE Effect Inhibitor Type [3]: C; AChE Effect IC50 ± SD [3]: 27.41 ± 1.64 µg/mL; Ki [3]: 159 ± 6.34 µM
CC1=CC[C@H]2[C@@H](C1)C2(C)C [Compound C15, δ-3-Carene] | 80.3 | 80.3 µg/mL and 590 µM | 136 µg/mL and 997 µM | 7.3% | – | – | AChE inhibition type (Lineweaver–Burk plots), in words [3]: non-competitive inhibition; AChE Effect Inhibitor Type [3]: NC; Ki [3]: 2.85 ± 0.05 µM
C=C1CCC2CC1C2(C)C (stereo not drawn) [Compound C17, β-Pinene] | – | – | 151 µg/mL | – | – | – | –
C=C1CCC2(C(C)C)CC12 (stereo not shown) [Compound C18, Sabinene] | 68.7 | 68.7 µg/mL and 504 µM | 102 µg/mL and 750 µM | 25.9% | – | – | LC50 [1, 7]: 68.6 µg/mL
CC1=CCC(C(C)C)=CC1 [Compound C21, γ-Terpinene] | 108 | 108 µg/mL and 792 µM | 188 µg/mL and 1.38 mM | 25.9% | – | – | –
CC1=CC(=O)C(C(C)C)CC1 (stereo not shown) [Compound C22, Piperitone] | – | 4.38 µg/mL and 28.8 µM | 6.19 µg/mL and 40.7 µM | – | – | 14.70 (13.25–16.96) µg/Adult | –
C=C(C)[C@@H]1CC[C@@H](C)CC1=O [Compound C23, 2S,5R-Isopulegone] | 2.37 | 2.37 µg/mL and 15.6 µM | 3.88 µg/mL and 25.5 µM | 19.4% | – | 18.48 (16.56–21.64) µg/Adult | Contact Toxicity LD50i (LC-95%) [4]: 11.14 µg/Adult
CC1=CCC(=C(C)C)CC1 [Compound C24, Terpinolene] | – | 52.1 µg/mL and 338 µM | 88.8 µg/mL and 576 µM | – | – | – | –
CC(C)=CCC/C(C)=C/C=O [Compound C27, Citral] | – | – | – | – | – | 32.68 (29.77–36.82) µg/Adult | –
C=CC(C)(O)CCC=C(C)C (stereo not shown) [Compound C28, Linalool] | – | – | – | – | 21.87 (19.09–24.23) µg/Adult | 36.23 (33.20–40.64) µg/Adult | –
CC(C)=CCC/C(C)=C/CO [Compound C30, Geraniol] | – | – | – | – | 28.13 (25.70–30.49) µg/Adult | 41.06 (37.98–45.41) µg/Adult | –
C=CCc1ccc2c(c1)OCO2 [Compound C32, Safrole] | – | – | – | – | 36.31 (30.15–42.37) µg/Adult | 83.04 (73.50–96.63) µg/Adult | Contact toxicity, times less active than biosynthetic precursors C26 and C31 ([4]; in vivo): 1.5 times
CCCCCCCC(=O)CCC [Compound C34, 4-Undecanone] | – | – | – | – | 37.05 (34.09–40.01) µg/Adult | 53.95 (49.63–60.68) µg/Adult | –
CCCCCCCCC(C)=O [Compound C35, 2-Decanone] | – | – | – | – | 38.04 (35.29–40.84) µg/Adult | 57.17 (52.97–63.12) µg/Adult | LC50 [1, 7]: > 150 µg/mL
CCCCCCCCCC(C)=O [Compound C36, 2-Undecanone] | – | – | – | – | 42.86 (40.60–45.30) µg/Adult | 57.13 (53.43–62.83) µg/Adult | –
CC(=O)OC/C=C(\C)CCC=C(C)C [Compound C37, Geranyl acetate] | – | – | – | – | 73.00 (65.98–81.05) µg/Adult | 126.06 (112.84–146.08) µg/Adult | –
CC1(C)C(C=C(Cl)Cl)C1C(=O)OC(C#N)c1cccc(Oc2ccccc2)c1 (stereo not shown) [Cypermethrin, reference compound] | – | – | – | – | 10.492 (0.00–29.96) µg/Adult | 35.79 (21.98–84.37) µg/Adult | Contact Toxicity LD50i (LC-95%) [4]: 10.49 (0.10–19.96) µg/Adult; Contact Toxicity LD50i (LC-95%) ([4]; listed as cypermethrin): 10.49 µg/Adult
COP(=O)(OC)OC=C(Cl)Cl [Dichlorvos, reference compound] | 2.17 | 2.17 µg/mL and 9.84 µM | 4.57 µg/mL and 20.7 µM | – | – | – | Fumigant Toxicity LC50i (LC-95%) ([1]; mixtures and their components (Table 3)): 2.17 (1.53–3.81) mg/L; AChE Effect IC50 ± SD [3]: 0.0096 ± 0.00208 µg/mL
Isoeugenol [Compound C31] | – | – | – | – | 29.1 (24.40–34.21) µg/Adult | 66.2 (57.28–80.01) µg/Adult | –

— PMC12194779, “Synergistic Insecticidal Activity of Plant Volatile Compounds: Impact on Neurotransmission and Detoxification Enzymes in Sitophilus zeamais” (Insects, 2025)
